Converted amounts (≈) assume the structure as drawn.
Assays:
Assay type in all cases: functional
Bacillus anthracis = assay: Antibacterial activity Bacillus anthracis Sterne 34F2 assessed as inhibition of bacterial growth by CLSI based microbroth dilution assay
Staphylococcus aureus [1] = assay: Antibacterial activity methicillin-resistant Staphylococcus aureus MRSA ST-2438 assessed as inhibition of bacterial growth incubated for 16 to 24 hrs by broth microdilution assay; conditions: time 16-24 hrs
Staphylococcus aureus [2] = assay: Antibacterial activity methicillin-resistant Staphylococcus aureus MRSA ST-2071 assessed as inhibition of bacterial growth incubated for 16 to 24 hrs by broth microdilution assay; conditions: time 16-24 hrs
Staphylococcus aureus [3] = assay: Antibacterial activity methicillin-resistant Staphylococcus aureus MRSA ST-1745 assessed as inhibition of bacterial growth incubated for 16 to 24 hrs by broth microdilution assay; conditions: time 16-24 hrs
Staphylococcus aureus [4] = assay: Antibacterial activity methicillin-resistant Staphylococcus aureus MRSA ST-3151 assessed as inhibition of bacterial growth incubated for 16 to 24 hrs by broth microdilution assay; conditions: time 16-24 hrs
Staphylococcus aureus [5] = assay: Antibacterial activity methicillin-resistant Staphylococcus aureus MRSA P-6642 assessed as inhibition of bacterial growth incubated for 16 to 24 hrs by broth microdilution assay; conditions: time 16-24 hrs
Staphylococcus aureus [6] = assay: Antibacterial activity methicillin-resistant Staphylococcus aureus MRSA B-10732 assessed as inhibition of bacterial growth incubated for 16 to 24 hrs by broth microdilution assay; conditions: time 16-24 hrs
Staphylococcus aureus [7] = assay: Antibacterial activity methicillin-resistant Staphylococcus aureus MRSA P-8029 assessed as inhibition of bacterial growth incubated for 16 to 24 hrs by broth microdilution assay; conditions: time 16-24 hrs
Staphylococcus aureus [8] = assay: Antibacterial activity methicillin-resistant Staphylococcus aureus MRSA B-10760 assessed as inhibition of bacterial growth incubated for 16 to 24 hrs by broth microdilution assay; conditions: time 16-24 hrs
Staphylococcus aureus [9] = assay: Antibacterial activity methicillin-resistant Staphylococcus aureus MRSA ST-5457 assessed as inhibition of bacterial growth incubated for 16 to 24 hrs by broth microdilution assay; conditions: time 16-24 hrs
Staphylococcus aureus [10] = assay: Antibacterial activity methicillin-resistant Staphylococcus aureus MRSA ST-10342 assessed as inhibition of bacterial growth incubated for 16 to 24 hrs by broth microdilution assay; conditions: time 16-24 hrs
Staphylococcus aureus [11] = assay: Antibacterial activity methicillin-resistant Staphylococcus aureus OM481 assessed as inhibition of bacterial growth by liquid dilution method
Micrococcus luteus = assay: Antibacterial activity Micrococcus luteus NBRC 333 assessed as inhibition of bacterial growth after 48 hrs by two fold dilution method
Bacillus subtilis [12] = assay: Antibacterial activity Bacillus subtilis NBRC 3757 assessed as inhibition of bacterial growth after 48 hrs by two fold dilution method
Staphylococcus aureus [13] = assay: Antibacterial activity methicillin-resistant Staphylococcus aureus OM584 assessed as inhibition of bacterial growth by liquid dilution method
[14] = system: Staphylococcus epidermidis; assay: Antibacterial activity Staphylococcus epidermidis NBRC 12993 assessed as inhibition of bacterial growth after 48 hrs by two fold dilution method
Staphylococcus aureus [15] = assay: Antibacterial activity methicillin-resistant Staphylococcus aureus USA300 assessed as inhibition of bacterial growth by CLSI based microbroth dilution assay
Staphylococcus aureus [16] = assay: Antibacterial activity methicillin-sensitive Staphylococcus aureus ATCC 29213 assessed as inhibition of bacterial growth by CLSI based microbroth dilution assay
Bacillus subtilis [17] = assay: Antibacterial activity Bacillus subtilis assessed as inhibition of bacterial growth after 18 hrs by broth dilution method
[18] = system: Pectobacterium carotovorum; assay: Antibacterial activity Pectobacterium carotovorum assessed as inhibition of bacterial growth after 18 hrs by broth dilution method
Escherichia coli = assay: Antibacterial activity Escherichia coli assessed as inhibition of bacterial growth after 18 hrs by broth dilution method
Staphylococcus aureus [19] = assay: Antibacterial activity Staphylococcus aureus assessed as inhibition of bacterial growth after 18 hrs by broth dilution method
Bacillus cereus = assay: Antibacterial activity Bacillus cereus assessed as inhibition of bacterial growth after 18 hrs by broth dilution method
Klebsiella pneumoniae = assay: Antibacterial activity Klebsiella pneumoniae K4 assessed as inhibition of bacterial growth incubated for 24 hrs by microbroth dilution assay
Pseudomonas aeruginosa = assay: Antibacterial activity Pseudomonas aeruginosa Ps12 assessed as inhibition of bacterial growth incubated for 24 hrs by microbroth dilution assay

## Cc1cc(C(=O)/C=C/c2ccc(Cl)cc2)ccc1O
Bacillus anthracis
  MIC: 12.5 µg/mL (≈ 45.8 µM)

## O=C(/C=C/c1ccc(O)c(O)c1)c1ccc(-c2ccccc2)cc1
Staphylococcus aureus [1]
  MIC: 25 µg/mL (≈ 79 µM)
Staphylococcus aureus [2]
  MIC: 25 µg/mL (≈ 79 µM)
Staphylococcus aureus [3]
  MIC: 25 µg/mL (≈ 79 µM)
Staphylococcus aureus [4]
  MIC: 25 µg/mL (≈ 79 µM)
Staphylococcus aureus [5]
  MIC: 25 µg/mL (≈ 79 µM)
Staphylococcus aureus [6]
  MIC: 25 µg/mL (≈ 79 µM)
Staphylococcus aureus [7]
  MIC: 25 µg/mL (≈ 79 µM)
Staphylococcus aureus [8]
  MIC: 25 µg/mL (≈ 79 µM)
Staphylococcus aureus [9]
  MIC: 25 µg/mL (≈ 79 µM)
Staphylococcus aureus [10]
  MIC: 25 µg/mL (≈ 79 µM)

## CC(C)=CCc1c(O)ccc(C(=O)/C=C/c2ccc(O)cc2)c1O [ISOBAVACHALCONE]
Staphylococcus aureus [11]
  MIC: 8 µg/mL (≈ 24.7 µM)
Micrococcus luteus
  MIC: 4 µg/mL (≈ 12.3 µM)
Bacillus subtilis [12]
  MIC: 4 µg/mL (≈ 12.3 µM)
Staphylococcus aureus [13]
  MIC: 8 µg/mL (≈ 24.7 µM)
[14]
  MIC: 4 µg/mL (≈ 12.3 µM)

## COc1ccc(/C=C/C(=O)c2ccc(O)c(C)c2)cc1
Bacillus anthracis
  MIC: 12.5 µg/mL (≈ 46.6 µM)

## COc1ccc(/C=C/C(=O)c2ccc(O)c(C)c2)cc1Br
Bacillus anthracis
  MIC: 1.56 µg/mL (≈ 4.49 µM)

## CC(C)=CCc1cc(C(=O)/C=C/c2ccc(O)cc2)c(O)cc1O [BROUSSOCHALCONE B]
Micrococcus luteus
  MIC: 16 µg/mL (≈ 49.3 µM)
Bacillus subtilis [12]
  MIC: 8 µg/mL (≈ 24.7 µM)
[14]
  MIC: 8 µg/mL (≈ 24.7 µM)

## COc1ccc(C(=O)/C=C/c2ccc(O)cc2)c(O)c1C/C=C(\C)CCC=C(C)C [XANTHOANGELOL F]
Micrococcus luteus
  MIC: 64 µg/mL (≈ 157 µM)
Bacillus subtilis [12]
  MIC: 64 µg/mL (≈ 157 µM)
[14]
  MIC: 64 µg/mL (≈ 157 µM)

## COc1cc(O)c(C(=O)/C=C/c2ccc(O)cc2)cc1CC=C(C)C
Micrococcus luteus
  MIC: 4 µg/mL (≈ 11.8 µM)
Bacillus subtilis [12]
  MIC: 4 µg/mL (≈ 11.8 µM)
[14]
  MIC: 4 µg/mL (≈ 11.8 µM)

## COc1ccc(C(=O)/C=C/c2ccc(F)cc2)cc1
Bacillus anthracis
  MIC: 12.5 µg/mL (≈ 48.8 µM)

## COc1cc(C(=O)/C=C/c2ccc(O)cc2)ccc1O
Staphylococcus aureus [1]
  MIC: 12.5 µg/mL (≈ 46.2 µM)
Staphylococcus aureus [2]
  MIC: 12.5 µg/mL (≈ 46.2 µM)
Staphylococcus aureus [3]
  MIC: 12.5 µg/mL (≈ 46.2 µM)
Staphylococcus aureus [4]
  MIC: 12.5 µg/mL (≈ 46.2 µM)
Staphylococcus aureus [5]
  MIC: 12.5 µg/mL (≈ 46.2 µM)
Staphylococcus aureus [6]
  MIC: 12.5 µg/mL (≈ 46.2 µM)
Staphylococcus aureus [7]
  MIC: 12.5 µg/mL (≈ 46.2 µM)
Staphylococcus aureus [8]
  MIC: 12.5 µg/mL (≈ 46.2 µM)
Staphylococcus aureus [9]
  MIC: 12.5 µg/mL (≈ 46.2 µM)
Staphylococcus aureus [10]
  MIC: 12.5 µg/mL (≈ 46.2 µM)

## CC1CCN(c2ccc(/C=C/C(=O)c3ccc(O)cc3O)cc2)CC1
Bacillus anthracis
  MIC: 1.56 µg/mL (≈ 4.62 µM)
Staphylococcus aureus [15]
  MIC: 3.12 µg/mL (≈ 9.26 µM)
Staphylococcus aureus [16]
  MIC: 6.25 µg/mL (≈ 18.5 µM)

## O=C(/C=C/c1ccc(O)cc1)c1ccc(O)cc1O [ISOLIQUIRITIGENIN]
Bacillus subtilis [17]
  MIC: 31.3 µg/mL (≈ 122 µM)
[18]
  MIC: 15.5 µg/mL (≈ 60.5 µM)
Escherichia coli
  MIC: 31.3 µg/mL (≈ 122 µM)
Staphylococcus aureus [19]
  MIC: 7.8 µg/mL (≈ 30.4 µM)
Bacillus cereus
  MIC: 15.5 µg/mL (≈ 60.5 µM)

## CC(C)=CCc1c(O)ccc(C(=O)/C=C/c2ccc(O)c(C)c2)c1O
Staphylococcus aureus [11]
  MIC: 16 µg/mL (≈ 47.3 µM)
Staphylococcus aureus [13]
  MIC: 8 µg/mL (≈ 23.6 µM)

## COc1ccc(C(=O)/C=C/c2ccc(O)cc2)c(O)c1CC=C(C)C
Micrococcus luteus
  MIC: 2 µg/mL (≈ 5.91 µM)
Bacillus subtilis [12]
  MIC: 2 µg/mL (≈ 5.91 µM)
[14]
  MIC: 2 µg/mL (≈ 5.91 µM)

## O=C(/C=C/c1c[nH]c2ccccc12)c1cccc(OCc2ccccc2)c1
Staphylococcus aureus [1]
  MIC: 12.5 µg/mL (≈ 35.4 µM)
Staphylococcus aureus [2]
  MIC: 12.5 µg/mL (≈ 35.4 µM)
Staphylococcus aureus [3]
  MIC: 12.5 µg/mL (≈ 35.4 µM)
Staphylococcus aureus [4]
  MIC: 12.5 µg/mL (≈ 35.4 µM)
Staphylococcus aureus [5]
  MIC: 12.5 µg/mL (≈ 35.4 µM)
Staphylococcus aureus [6]
  MIC: 12.5 µg/mL (≈ 35.4 µM)
Staphylococcus aureus [7]
  MIC: 12.5 µg/mL (≈ 35.4 µM)
Staphylococcus aureus [8]
  MIC: 12.5 µg/mL (≈ 35.4 µM)
Staphylococcus aureus [9]
  MIC: 12.5 µg/mL (≈ 35.4 µM)
Staphylococcus aureus [10]
  MIC: 12.5 µg/mL (≈ 35.4 µM)

## O=C(/C=C/c1ccc(Cl)cc1)c1ccc(O)cc1
Staphylococcus aureus [1]
  MIC: 25 µg/mL (≈ 96.6 µM)
Staphylococcus aureus [2]
  MIC: 25 µg/mL (≈ 96.6 µM)
Staphylococcus aureus [3]
  MIC: 25 µg/mL (≈ 96.6 µM)
Staphylococcus aureus [4]
  MIC: 25 µg/mL (≈ 96.6 µM)
Staphylococcus aureus [5]
  MIC: 25 µg/mL (≈ 96.6 µM)
Staphylococcus aureus [6]
  MIC: 25 µg/mL (≈ 96.6 µM)
Staphylococcus aureus [7]
  MIC: 25 µg/mL (≈ 96.6 µM)
Staphylococcus aureus [8]
  MIC: 25 µg/mL (≈ 96.6 µM)
Staphylococcus aureus [9]
  MIC: 25 µg/mL (≈ 96.6 µM)
Staphylococcus aureus [10]
  MIC: 25 µg/mL (≈ 96.6 µM)

## CCN(CC)c1ccc(/C=C/C(=O)c2ccc(O)cc2O)cc1
Bacillus anthracis
  MIC: 3.12 µg/mL (≈ 10 µM)
Staphylococcus aureus [15]
  MIC: 3.12 µg/mL (≈ 10 µM)
Staphylococcus aureus [16]
  MIC: 6.25 µg/mL (≈ 20.1 µM)

## COc1cccc(/C=C/C(=O)c2ccc(O)cc2O)c1OC
Bacillus subtilis [17]
  MIC: 125 µg/mL (≈ 416 µM)
[18]
  MIC: 125 µg/mL (≈ 416 µM)
Escherichia coli
  MIC: 62.5 µg/mL (≈ 208 µM)
Staphylococcus aureus [19]
  MIC: 62.5 µg/mL (≈ 208 µM)
Bacillus cereus
  MIC: 62.5 µg/mL (≈ 208 µM)

## Cc1cc(C(=O)/C=C/c2ccc(N3CCCCC3)cc2)ccc1O
Bacillus anthracis
  MIC: 1.56 µg/mL (≈ 4.85 µM)

## CC(C)=CCC/C(C)=C/Cc1c(O)ccc(C(=O)/C=C/c2ccc(O)cc2)c1O [XANTHOANGELOL]
Micrococcus luteus
  MIC: 4 µg/mL (≈ 10.2 µM)
Bacillus subtilis [12]
  MIC: 4 µg/mL (≈ 10.2 µM)
[14]
  MIC: 4 µg/mL (≈ 10.2 µM)

## O=C(/C=C/c1ccc(N2CCCCC2)cc1)c1ccc(O)cc1O
Staphylococcus aureus [15]
  MIC: 3.12 µg/mL (≈ 9.66 µM)
Staphylococcus aureus [16]
  MIC: 3.12 µg/mL (≈ 9.66 µM)

## COc1cc(C(CC(=O)c2ccc(C)cc2)SC(=S)N2CCOCC2)cc(OC)c1OC (configuration not stated)
Klebsiella pneumoniae
  MIC: 8 µg/mL (≈ 16.8 µM)
Pseudomonas aeruginosa
  MIC: 8 µg/mL (≈ 16.8 µM)
